Consider 14 compounds from US12583848B2, “Isoxazole-3-carboxamide derivatives and their use for treatment of diseases caused by virus infection” (Collaborations Pharmaceuticals, Inc., priority 2019, dated 2026).

Bounds are passed on as bounds.

In one series the test system is poliomyelitis virus. The settings on record: cited from earlier work.
In a further series the test system is poliovirus. As to conditions: mouse, in vivo; cited from earlier work.
Series [1] deals with CVB3 97927-I1207M (pleconaril-resistant variant). Format: cell-based, coxsackievirus B3.
Another series concerns rhinovirus A2 (RV-A2). Put plainly: organism not typed. Format: cell-based. As to conditions: HeLa, 72 h, read-out: IC50 against Rhinoviruses (RV) RV-A2.
Another series deals with rhinovirus B14 (RV-B14). Put plainly: organism not typed. It is filed as cell-based. The settings on record: HeLa, 72 h, read-out: IC50 against Rhinoviruses (RV) RV-B14.
The subject of a further series is HeLa cells. The settings on record: human.
The subject of series [2] is CVB3 97927-I1207K (pleconaril-resistant variant). Format: cell-based, coxsackievirus B3.
The test system of series [3] is CVB3 97927-I1207T (pleconaril-resistant variant). Format: cell-based, coxsackievirus B3.
A further series relates to rhinovirus B5 (RV-B5). Put plainly: organism not typed. As to conditions: HeLa cells, CPE inhibition, 72 hours; n.a. = not active; read-out: IC50 against Rhinoviruses (RV) RV-B5. It is filed as cell-based.
Series [4] concerns clinical isolates of enterovirus serotypes. As to conditions: most of 215 clinical isolates of enterovirus serotypes; cited from earlier work.
Series [5] has as its system coxsackievirus B3 I1207K and I1207R. As to conditions: in vitro; cited from earlier work.
The next series is described as follows: in vitro. The settings on record: human, HeLa cells.
The target in another series is PXR (Homo sapiens, UniProt O75469). Put plainly: biochemical.
PXR, sequence (O75469 111-434 limits assumed): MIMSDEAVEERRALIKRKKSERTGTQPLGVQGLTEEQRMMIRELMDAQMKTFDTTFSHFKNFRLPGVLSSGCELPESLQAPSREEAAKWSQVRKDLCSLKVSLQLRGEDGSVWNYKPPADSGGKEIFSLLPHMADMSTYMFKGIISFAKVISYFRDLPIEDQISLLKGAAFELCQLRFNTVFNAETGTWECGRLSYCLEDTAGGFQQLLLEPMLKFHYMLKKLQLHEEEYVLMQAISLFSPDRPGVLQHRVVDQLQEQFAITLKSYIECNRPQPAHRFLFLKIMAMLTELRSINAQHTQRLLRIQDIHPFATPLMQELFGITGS
The test system of series [6] is Enterovirus D68 (EV-D68 MP30 PP). Format: in vivo, AG129 mice. As to conditions: guanidine 100 mg/kg/d IP, days 1 and 3 post-infection.

Consider `CCC(=O)C(CCCCCCOc1ccc(OC)cc1Cl)C(=O)CC` [Arildone], for which the “replication of poliomyelitis virus in vitro” value in the series with poliomyelitis virus is “specifically inhibits replication of poliomyelitis virus in vitro”. Further, in the series with poliovirus, the “poliovirus-induced paralysis and death” value is “prevents poliovirus-induced paralysis and death in mice”.

As a reminder, the IC50 is the midpoint of a concentration-inhibition curve. For orientation: CC50 means the concentration that lowers cell viability or growth by half. Higher therefore signals lower toxicity to the cells. With `Cc1cc(-c2noc(C(F)(F)F)n2)cc(C)c1OCCCc1cc(C(=O)NCc2ccccc2)no1` [Compound 1, N-benzyl-5-(3-{2,6-dimethyl-4-[5-(trifluoromethyl)-1,2,4-oxadiazol-3-yl]phenoxy}propyl)isoxazole-3-carboxamide], the IC50 in series [1] is 13.1 µM; in the series with rhinovirus A2 (RV-A2), 0.23 µM; in the series with rhinovirus B14 (RV-B14), 0.25 µM. The compound also had a CC50 in the series on HeLa cells of more than 100 µM.

As for `CNC(=O)c1cc(CCCOc2c(C)cc(-c3noc(C(F)(F)F)n3)cc2C)on1` [Compound 2, 5-(3-{2,6-dimethyl-4-[5-(trifluoromethyl)-1,2,4-oxadiazol-3-yl]phenoxy}propyl)-N-methylisoxazole-3-carboxamide], the IC50 came to 0.37 µM in series [1], 0.21 µM with rhinovirus A2 (RV-A2) and 0.02 µM in the series on rhinovirus B14 (RV-B14). In the series on HeLa cells, this compound came in with a CC50 of more than 100 µM. In addition, the Mutagenicity entry in the series with Escherichia coli PQ37 was “NO”.

Turning to `Cc1cc(-c2noc(C(F)(F)F)n2)cc(C)c1OCCCc1cc(C(N)=O)no1` [Compound 3, 5-(3-{2,6-dimethyl-4-[5-(trifluoromethyl)-1,2,4-oxadiazol-3-yl]phenoxy}propyl)isoxazole-3-carboxamide], the IC50 came out at 1.69 µM in series [1], 0.5 µM with rhinovirus A2 (RV-A2) and 0.22 µM in the series with rhinovirus B14 (RV-B14). Further, the CC50 in the series on HeLa cells was more than 100 µM.

Turning to `Cc1cc(-c2noc(C(F)(F)F)n2)cc(C)c1OCCCc1cc(C(=O)N(C)C)no1` [Compound 4, 5-(3-{2,6-dimethyl-4-[5-(trifluoromethyl)-1,2,4-oxadiazol-3-yl]phenoxy}propyl)-N,N-dimethylisoxazole-3-carboxamide], the IC50 was 8.52 µM in series [2]; less than 0.03 µM in [1]; 1.01 µM in [3]; 0.12 µM with rhinovirus A2 (RV-A2); 0.12 µM with rhinovirus B14 (RV-B14). Moreover, the CC50 in the series with HeLa cells worked out at 13.2 µM. Moreover, the Mutagenicity result in the series with Escherichia coli PQ37 is “NO”.

For `COc1cc(-c2noc(C(F)(F)F)n2)ccc1OCCCc1cc(C(=O)N(C)C)no1` [Compound 6, 5-(3-{2-methoxy-4-[5-(trifluoromethyl)-1,2,4-oxadiazol-3-yl]phenoxy}propyl)-N,N-dimethylisoxazole-3-carboxamide], the IC50 in [2] was 51.7 µM; in series [1], 0.6 µM; in series [3] it was 1.66 µM; in the series with rhinovirus A2 (RV-A2), 1.97 µM; in the series on rhinovirus B5 (RV-B5), 3.28 µM; with rhinovirus B14 (RV-B14), 0.04 µM. Also, half-maximal cytotoxicity in the series with HeLa cells (CC50) was put at 68 µM.

For the compound `CN(C)C(=O)c1cc(CCCOc2ccc(-c3noc(C(F)(F)F)n3)cc2[N+](=O)[O-])on1` [Compound 7, N,N-dimethyl-5-(3-{2-nitro-4-[5-(trifluoromethyl)-1,2,4-oxadiazol-3-yl]phenoxy}propyl)isoxazole-3-carboxamide], the IC50 in [2] worked out at 6.46 µM; in series [1], 0.001 µM; in series [3], 0.03 µM; in the series with rhinovirus A2 (RV-A2) it was 0.67 µM; with rhinovirus B5 (RV-B5), 7.63 µM; in the series with rhinovirus B14 (RV-B14), 0.28 µM. For the same compound, the CC50 in the series with HeLa cells came to 22.5 µM. In the series on Escherichia coli PQ37, the Mutagenicity result was “NO”.

As to `CN(C)C(=O)c1cc(CCCOc2ccc(-c3noc(C(F)(F)F)n3)cc2F)on1` [Compound 9, 5-(3-{2-fluoro-4-[5-(trifluoromethyl)-1,2,4-oxadiazol-3-yl]phenoxy}propyl)-N,N-dimethylisoxazole-3-carboxamide], the IC50 in series [1] was found to be 0.05 µM; in series [3], 1.43 µM; in the series on rhinovirus A2 (RV-A2) it was 3.77 µM; in the series with rhinovirus B5 (RV-B5), 4.04 µM; with rhinovirus B14 (RV-B14), 0.05 µM. In the series on HeLa cells, this compound had a CC50 of 20.2 µM.

In the case of `COc1cc(-c2noc(C(F)(F)F)n2)cc([N+](=O)[O-])c1OCCCc1cc(C(=O)N(C)C)no1` [Compound 10, 5-(3-{2-methoxy-6-nitro-4-[5-(trifluoromethyl)-1,2,4-oxadiazol-3-yl]phenoxy}propyl)-N,N-dimethylisoxazole-3-carboxamide], the half-inhibitory concentration (IC50) in series [1] was found to be 0.88 µM; in [3] it was 0.84 µM; with rhinovirus A2 (RV-A2), 0.32 µM; in the series with rhinovirus B14 (RV-B14), 0.2 µM. Moreover, half-maximal cytotoxicity in the series with HeLa cells (CC50) was put at 25.6 µM.

In the case of `CN(C)C(=O)c1cc(CCCOc2ccc(-c3noc(C(F)(F)F)n3)cc2)on1` [Compound 11, N,N-dimethyl-5-(3-{4-[5-(trifluoromethyl)-1,2,4-oxadiazol-3-yl]phenoxy}propyl)isoxazole-3-carboxamide], the IC50 was 27.5 µM in series [2]; 0.02 µM in [1]; 8.11 µM in [3]; 4.61 µM in the series with rhinovirus A2 (RV-A2); 1.74 µM in the series with rhinovirus B5 (RV-B5); 0.04 µM with rhinovirus B14 (RV-B14). The compound further gave a CC50 in the series with HeLa cells of 28 µM.

For `CN(C)C(=O)c1cc(CCCOc2ccc(-c3noc(C(F)(F)F)n3)cc2C(F)(F)F)on1` [Compound 12, N,N-dimethyl-5-(3-{2-(trifluoromethyl)-4-[5-(trifluoromethyl)-1,2,4-oxadiazol-3-yl]phenoxy}propyl)isoxazole-3-carboxamide], the IC50 in series [2] turned out to be 7.18 µM; in [1], 0.16 µM; in [3] it was 0.53 µM; with rhinovirus A2 (RV-A2), 0.32 µM; in the series on rhinovirus B14 (RV-B14), 6.76 µM. The CC50 in the series on HeLa cells came out at 19.2 µM. The Mutagenicity result in the series with Escherichia coli PQ37 was “NO”.

For the compound `CNC(=O)c1cc(CCCOc2ccc(-c3noc(C(F)(F)F)n3)cc2C(F)(F)F)on1` [Compound 13, N-methyl-5-(3-{2-(trifluoromethyl)-4-[5-(trifluoromethyl)-1,2,4-oxadiazol-3-yl]phenoxy}propyl)isoxazole-3-carboxamide], the IC50 in [1] was 0.06 µM; in [3], 1.04 µM; in the series with rhinovirus A2 (RV-A2) it was 0.96 µM. In addition, the CC50 in the series on HeLa cells is more than 100 µM.

Regarding `Cc1cc(CCCOc2c(C)cc(-c3noc(C(F)(F)F)n3)cc2C)on1` [Pleconaril, reference compound], the IC50 in series [1] is 4.5 µM; in series [3], 9.41 µM; with rhinovirus B14 (RV-B14) it was 0.06 µM; in series [4], not above 0.03 µM; against PXR, more than 100 µM. Besides, the “antiviral activity against coxsackievirus B3 with I1207K or I1207R in VP1” value in [5] is reported as “completely abolish the antiviral activity”. Also, the CC50 in “in vitro” stood at 45.2 µM.

As for “Guanidine HCl [Gua- HCl, reference compound]”, the IC50 in series [2] is 705 µM; in series [1] it was 725 µM; in series [3], 807 µM. Further, in series [6], the “lung virus titers compared to placebo” value is “reduction in virus titers”.
